From patent publication US20250332178A1, “METHODS OF TREATING MYCOBACTERIAL INFECTIONS USING TETRACYCLINE COMPOUNDS” (priority 2018, published 2025)
Values after ≈ are worked out from the molar mass of the structure shown. Read-outs that look alike come from different tables or passages of the source.

Experiments:
M. arupense = test: MIC (CLSI broth dilution), slow-growing NTM isolates; format: cell-based; settings: isolate 11, Other; read-out: MIC
M. simiae = test: as above; format: cell-based; settings: read-out: MIC
M. immunogenum group = test: MIC (CLSI broth dilution), RGM isolates; format: cell-based; settings: M. immunogenum
M. smegmatis group = test: MIC (CLSI broth dilution), RGM isolates; format: cell-based
M. abscessus complex = test: MIC (CLSI broth dilution), RGM isolates; format: cell-based
M. fortuitum group = test: MIC (CLSI broth dilution), RGM isolates; format: cell-based
M. mucogenium group = test: MIC (CLSI broth dilution), RGM isolates; format: cell-based
M. chelonae = test: MIC (CLSI broth dilution), RGM isolates; format: cell-based
[1] = system: rapid-growing mycobacteria (RGM) isolates; test: MIC (CLSI broth dilution), all RGM isolates; format: cell-based, nontuberculous mycobacteria; settings: all 50 RGM isolates

CO[C@H]1/C=C/O[C@@]2(C)Oc3c(C)c(O)c4c(O)c(c(/C=N/N5CCN(C)CC5)c(O)c4c3C2=O)NC(=O)/C(C)=C\C=C\[C@H](C)[C@H](O)[C@@H](C)[C@@H](O)[C@@H](C)[C@H](OC(C)=O)[C@@H]1C [RIF, rifampin]
MIC (M. arupense): > 2 µg/mL | MIC (M. simiae; isolate 13, Other): > 2 µg/mL | MIC (M. simiae; isolate 14, Other): > 2 µg/mL | MIC (M. simiae; isolate 15, Other): > 2 µg/mL

C[C@@H](O)[C@H]1C(=O)N2C(C(=O)O)=C(SCCN=CN)C[C@H]12 [IPM, imipenem]
MIC (M. immunogenum group; isolate 35, M. immunogenum group): 16 µg/mL (≈ 53.4 µM) | MIC (M. immunogenum group; isolate 36, M. immunogenum group): 32 µg/mL (≈ 107 µM) | MIC (M. immunogenum group; isolate 37, M. immunogenum group): 16 µg/mL (≈ 53.4 µM) | MIC (M. immunogenum group; isolate 38, M. immunogenum group): 32 µg/mL (≈ 107 µM) | MIC (M. smegmatis group; isolate 49, M. smegmatis group, M. goodii): 4 µg/mL (≈ 13.4 µM) | MIC (M. smegmatis group; isolate 50, M. smegmatis group, M. wolinskyi): 4 µg/mL (≈ 13.4 µM) | MIC (M. abscessus complex; isolate 1, M. abscessus complex, erm gene type MAB30): 8 µg/mL (≈ 26.7 µM) | MIC (M. abscessus complex; isolate 2, M. abscessus complex, erm gene type MAB30): 16 µg/mL (≈ 53.4 µM) | MIC (M. abscessus complex; isolate 3, M. abscessus complex, erm gene type MAB30): 8 µg/mL (≈ 26.7 µM) | MIC (M. abscessus complex; isolate 4, M. abscessus complex, erm gene type massiliense): 8 µg/mL (≈ 26.7 µM) | MIC (M. abscessus complex; isolate 5, M. abscessus complex, erm gene type massiliense/subsp. abs hybrid): 16 µg/mL (≈ 53.4 µM) | MIC (M. abscessus complex; isolate 6, M. abscessus complex, erm gene type Type 1 abscessus): 8 µg/mL (≈ 26.7 µM) | MIC (M. abscessus complex; isolate 7, M. abscessus complex, erm gene type Type 1 abscessus): 8 µg/mL (≈ 26.7 µM) | MIC (M. abscessus complex; isolate 8, M. abscessus complex, erm gene type Type 1 abscessus): 8 µg/mL (≈ 26.7 µM) | MIC (M. abscessus complex; isolate 9, M. abscessus complex, erm gene type Type 1 abscessus): 16 µg/mL (≈ 53.4 µM) | MIC (M. abscessus complex; isolate 10, M. abscessus complex, erm gene type Type 1 abscessus): 16 µg/mL (≈ 53.4 µM) | MIC (M. abscessus complex; isolate 11, M. abscessus complex, erm gene type Type 6 abscessus): 8 µg/mL (≈ 26.7 µM) | MIC (M. abscessus complex; isolate 12, M. abscessus complex, erm gene type Type 6 abscessus): 16 µg/mL (≈ 53.4 µM) | MIC (M. abscessus complex; isolate 13, M. abscessus complex, erm gene type Type 6 abscessus): 8 µg/mL (≈ 26.7 µM) | MIC (M. abscessus complex; isolate 14, M. abscessus complex, erm gene type Type 6 abscessus): 8 µg/mL (≈ 26.7 µM) | MIC (M. abscessus complex; isolate 15, M. abscessus complex, erm gene type Type 7 abscessus): 8 µg/mL (≈ 26.7 µM) | MIC (M. abscessus complex; isolate 16, M. abscessus complex, erm gene type Type 7 abscessus): 8 µg/mL (≈ 26.7 µM) | MIC (M. abscessus complex; isolate 17, M. abscessus complex, erm gene type Type 8 abscessus): 8 µg/mL (≈ 26.7 µM) | MIC (M. fortuitum group; isolate 23, M. fortuitum group, M. fortuitum): ≤2 µg/mL | MIC (M. fortuitum group; isolate 24, M. fortuitum group, M. fortuitum): 4 µg/mL (≈ 13.4 µM) | MIC (M. fortuitum group; isolate 25, M. fortuitum group, M. fortuitum): ≤2 µg/mL | MIC (M. fortuitum group; isolate 26, M. fortuitum group, M. porcinum): ≤2 µg/mL | MIC (M. fortuitum group; isolate 27, M. fortuitum group, M. porcinum): 4 µg/mL (≈ 13.4 µM) | MIC (M. fortuitum group; isolate 28, M. fortuitum group, M. porcinum/M. boenickei): 8 µg/mL (≈ 26.7 µM) | MIC (M. fortuitum group; isolate 29, M. fortuitum group, M. porcinum/M. boenickei): 4 µg/mL (≈ 13.4 µM) | MIC (M. fortuitum group; isolate 30, M. fortuitum group, M. porcinum/M. boenickei): ≤2 µg/mL | MIC (M. fortuitum group; isolate 31, M. fortuitum group, M. senegalense): ≤2 µg/mL | MIC (M. fortuitum group; isolate 32, M. fortuitum group, M. senegalense): ≤2 µg/mL | MIC (M. fortuitum group; isolate 33, M. fortuitum group, M. senegalense): ≤2 µg/mL | MIC (M. fortuitum group; isolate 34, M. fortuitum group, M. senegalense): ≤2 µg/mL | MIC (M. mucogenium group; isolate 39, M. mucogenicum group, M. mucogenicum): ≤2 µg/mL | MIC (M. mucogenium group; isolate 40, M. mucogenicum group, M. mucogenicum): ≤2 µg/mL | MIC (M. mucogenium group; isolate 41, M. mucogenicum group, M. mucogenicum): ≤2 µg/mL | MIC (M. mucogenium group; isolate 42, M. mucogenicum group, M. mucogenicum): ≤2 µg/mL | MIC (M. mucogenium group; isolate 43, M. mucogenicum group, M. phocaicum): ≤2 µg/mL | MIC (M. mucogenium group; isolate 44, M. mucogenicum group, M. phocaicum): ≤2 µg/mL | MIC (M. mucogenium group; isolate 45, M. mucogenicum group, M. phocaicum): ≤2 µg/mL | MIC (M. mucogenium group; isolate 46, M. mucogenicum group, M. phocaicum): ≤2 µg/mL | MIC (M. mucogenium group; isolate 47, M. mucogenicum group, M. phocaicum): ≤2 µg/mL | MIC (M. mucogenium group; isolate 48, M. mucogenicum group, M. phocaicum): ≤2 µg/mL | MIC (M. chelonae; isolate 18, M. chelonae): 16 µg/mL (≈ 53.4 µM) | MIC (M. chelonae; isolate 19, M. chelonae): 16 µg/mL (≈ 53.4 µM) | MIC (M. chelonae; isolate 20, M. chelonae): 16 µg/mL (≈ 53.4 µM) | MIC (M. chelonae; isolate 21, M. chelonae): 32 µg/mL (≈ 107 µM) | MIC (M. chelonae; isolate 22, M. chelonae): 16 µg/mL (≈ 53.4 µM) | MIC50 [1]: 8 µg/mL (≈ 26.7 µM) | MIC90 [1]: 16 µg/mL (≈ 53.4 µM)
